# US10835548B2, “Metronomic oral gemcitabine for cancer therapy” (priority 2016, dated 2020)
# Read-outs that look alike come from different tables or passages of the source.
# How the values were obtained:
# [1] = test system: CFPAC-1 pancreatic cancer xenografts; test: 5FU injection followed by GEMORAL in CFPAC-1 xenografted mouse model; type: in vivo, BALB/c nude mice
# Procedure: Pancreatic cancer monotherapy using 5-fluorouracil (5FU) injection is known. […] We investigated oral metronomic GEM administration as a second-line treatment in 5FU-non-responsive pancreatic tumors using a xenograft model. To prepare the xenografted mice used in the study, 1×10^6 human CFPAC-1 pancreatic cancer cells were transplanted subcutaneously on the right flank of 6 week old male BALB/c nude mice. Tumor growth was observed once a week, tumor volume was measured as L×W^2/2 by caliper, and mice were selected for inclusion in the study when their tumor volume reached about 131 cubic millimeters. […] The day on which mice were first dosed was designated “Day 0” of the study, and the study continued for 112 days. Mice of Group 1 were orally administered 10 mg/kg GEMORAL every other day (i.e., Q2D×56), beginning on day 0 of the study and extending through the end of the study. […] Beginning on day 63 of the study, the mice were orally administered 10 mg/kg GEMORAL every other day (i.e., Q2D×25) through the end of the study. […] Beginning on day 21 of the study, the mice were orally administered 10 mg/kg GEMORAL every other day (i.e., Q2D×46) through the end of the study. […] They were intraperitoneally injected with saline on days 0, 3, 6, and 9 of the study (i.e., Q3D×4). […]
# [2] = MTD of GEM intravenous infusion regime in human cancer patients (Fossella et al.); type: in vivo
# Procedure: For GEM, others have determined MTD values for human cancer patients. For example, Fossella et al. (1997, J. Clin. Oncol. 15:310-316) estimated an MTD of 2,400 mg/m^2/week for a GEM intravenous infusion regime regime (2,400 mg/m^2 corresponding to 3,893 mg/60 kg for a human patient, equal to 64.988 mg/kg). Labeling for a commercial GEM product, marketed under the brand name GEMZAR (Eli Lilly and Co.) recommends an intravenous dosage of 1,000 or 1,250 mg/m^2. In details, GEMZAR dosage administration is conducted at a dose of 1,000 mg/m^2, corresponding to 1,622 mg/60 kg for a human patient, equal to 27.03 mg/kg, administered on Days 1 and 8 or Days 1, 8, and 15 of a 21-day cycle, or at a dose of 1,250 mg/m^2, corresponding to 2,027 mg/60 kg for a human patient, equal to 33.878 mg/kg, administered on Days 1, 8, and 15 of a 28-day cycle.
# [3] = test system: CFPAC-1 pancreatic cancer xenografts; test: Xenografted mouse model of human pancreatic cancer cell line CFPAC-1; type: in vivo, BALB/c nude mice; details: Group 1: GEM 120 mg/kg i.p. Q3D×23
# Procedure: Example 4 is a study in which the effects of GEM upon mice into which cells of human pancreatic cancer cell line CFPAC-1 were xenografted.
# To prepare the xenografted mice used in the study, 1×10^6 human CFPAC-1 pancreatic cancer cells were transplanted subcutaneously on the right flank of 6 week old male BALB/c nude mice. Tumor growth was observed once a week and the tumor volume was measured as L×W^2/2 by caliper. Tumor development in the xenografted mice was then observed, and 48 such mice were selected for inclusion in the study when their tumor volume reached about 141 cubic millimeters. The mice were divided into 6 groups of 8 mice each for the study. The day on which mice were first dosed was designated “Day 0” of the study, and the study continued for 91 days.
# Mice of Group 1 were intraperitoneally injected with 120 mg/kg of GEM on day 0 and every third day thereafter through day 66 (i.e., Q3D×23) and were not further treated thereafter.
# Mice of Group 2 were intraperitoneally injected with 120 mg/kg of GEM on days 0, 3, 6, and 9 of the study (i.e., Q3D×4). Beginning on day 12 of the study, the mice were orally administered 10 mg/kg GEM in the GEMORAL composition (hereinafter “10 mg/kg GEMORAL”) every other day (i.e., Q2D×28) through day 66; the mice were not further treated thereafter.
# Mice of Group 3 were intraperitoneally injected with 120 mg/kg of GEM on days 0, 3, 6, and 9 of the study (i.e., Q3D×4). Beginning on day 12 of the study, the mice were orally administered 3 mg/kg GEM in the GEMORAL composition (hereinafter “3 mg/kg GEMORAL”) every day (i.e., QD×55) through day 66; the mice were not further treated thereafter.
# Mice of Group 4 were orally administered 3 mg/kg GEMORAL every day (i.e., QD×92), beginning on day 0 of the study and extending through the end of the study.
# Mice of Group 5 were orally administered 10 mg/kg GEMORAL every other day (i.e., Q2D×46), beginning on day 0 of the study and extending through the end of the study.
# Mice of Group 6 were controls and were not administered GEM. […]
# [4] = intravenous infusion, human cancer patients; cited from earlier work
# [5] = test system: patient-derived human cholangiocarcinoma xenografts; test: Xenografted mouse model of patient-derived human cholangiocarcinoma; type: in vivo; details: Group 1: GEM 60 mg/kg i.p. Q3D×4
# Procedure: This example describes a study in which the effects of gemcitabine upon mice into which portions of a human patient-derived cholangiocarcinoma were xenografted. The xenografted mice were then treated with one of five treatment regimens and the results observed.
# To prepare the xenografted mice used in the study, primary human cholangiocarcinoma fragments obtained from human patients were injected into “stock” male BALB/c nude mice. Subsequently, tumor fragments (roughly 2-3 millimeters in diameter) were harvested from the “stock” mice and inoculated subcutaneously into the right flank of other male BALB/c nude mice. Tumor development in the inoculated mice was then observed, and 40 such mice were selected for inclusion in the study when their tumor volume reached about 180 cubic millimeters (volume was assessed by multiplying tumor length by ½ (tumor width squared) (i.e., L×W^2/2), length and width being measured using a caliper). The mice were divided into 5 groups of 8 mice each for the study, all mice in each group having tumors of approximately equal size. The day on which mice were first dosed was designated “Day 1” of the study, and the study continued for 76 days. The mice were divided into Groups 1, 2, 3, 4, and 5. Mice of each group were treated identically.
# Mice of Group 1 were intraperitoneally injected with 60 mg/kg of GEM on days 1, 4, 7, and 10 of the study (i.e., Q3D×4) and were not further treated thereafter. […]
# (§1) Mice of Group 5 were controls and were not administered GEM. They were intraperitoneally injected with saline on days 1, 4, 7, and 10 of the study (i.e., Q3D×4). Beginning on day 13 of the study, the mice were orally administered distilled, deionized water every other day (i.e., Q2D×32) through the end of the study.
# The study was continued until day 76 and the body weight losses among the mice of the various Groups were observed. […] For Group 3, 6 of 8 mice were dead by day 10.
# Values reflecting anti-tumor responses, as compared with vehicle treatment (T/C %, calculated as the ratio of average tumor volume in treatment group vs. average tumor volume in the control group {Group 5}, expressed as a percentage) on different study days are indicated in Table 1.
# [6] = test system: HuCCT1 cholangiocarcinoma xenografts; test: Xenografted mouse model of human cholangiocarcinoma cell line HuCCT1; type: in vivo, BALB/c nude mice; details: Group 1: GEM 60 mg/kg i.p. Q3D×4
# Procedure: Example 3 is a study in which the effects of GEM upon mice into which cells of human cholangiocarcinoma cell line HuCCT1 were xenografted. The xenografted mice were then treated with one of five treatment regimens and the results observed over the study period of 90 days.
# To prepare the xenografted mice used in the study, 1×10^6 HuCCT1 human cholangiocarcinoma cells were transplanted subcutaneously on the right flank of 6 week old male BALB/c nude mice. Tumor growth was observed once a week and the tumor volume was measured as L×W^2/2 by caliper. Tumor development in the xenografted mice was then observed, and 40 such mice were selected for inclusion in the study when their tumor volume reached about 124 cubic millimeters. The mice were divided into 5 groups of 8 mice each for the study. The day on which mice were first dosed was designated “Day 0” of the study, and the study continued for 90 days.
# Mice of Group 1 were intraperitoneally injected with 60 mg/kg of GEM on days 0, 3, 6, and 9 of the study (i.e., Q3D×4) and were not further treated thereafter.
# Mice of Group 2 were intraperitoneally injected with 60 mg/kg of GEM on days 0, 3, 6, and 9 of the study (i.e., Q3D×4). Beginning on day 13 of the study, the mice were orally administered 10 mg/kg GEM in the GEMORAL composition (hereinafter “10 mg/kg GEMORAL”) every other day (i.e., Q2D×40) through the end of the study.
# Mice of Group 3 were intraperitoneally injected with 60 mg/kg of GEM on days 0, 3, 6, and 9 of the study (i.e., Q3D×4). Also beginning on day 1 of the study, the mice were orally administered 10 mg/kg GEMORAL every other day (i.e., Q2D×46) through the end of the study.
# Mice of Group 4 were orally administered 10 mg/kg GEMORAL every other day (i.e., Q2D×46), beginning on day 1 of the study and extending through the end of the study.
# as §1, with “0, 3, 6,” for “1, 4, 7,”, “9” for “10”, “Q2D×40)” for “Q2D×32)”
# The study was continued until day 90 and body weight losses among the mice of the various Groups were observed. In Group 3, all mice lost over 20% body weight by day 12.
# Values reflecting anti-tumor responses, as compared with vehicle treatment (T/C %) on different study days are indicated in Table 2. […] It is noteworthy that by day 12 the cumulative dose of GEM for Group 4 was only about 25% that of Group 1.
structure (smiles),measurement,setting,value
"O=c1[nH]cc(F)c(=O)[nH]1 [5FU, 5-fluorouracil]",anti-tumor response attributable to 5FU treatment,"[1]; Group 2: 5FU 20 mg/kg i.p. thrice weekly, first 9 weeks",No significant anti-tumor response
same,anti-tumor response attributable to 5FU treatment,"[1]; Group 3: 5FU 20 mg/kg i.p. thrice weekly, first 3 weeks",No significant anti-tumor response
"Nc1ccn([C@@H]2O[C@H](CO)[C@@H](O)C2(F)F)c(=O)n1 [GEM, gemcitabine]",MTD (corresponding dose for a human patient),"[2]; converted from 2,400 mg/m^2","3,893 mg/60 kg"
same,MTD,"[2]; human, in vivo, converted from 2,400 mg/m^2, read-out: MTD (corresponding dose per body weight)",65 mg/kg
same,days at which at least some mice were tumor free,[3],44 to 91 days
same,mice tumor free,[3]; at day 91,6/8
same,"maximum anti-tumor response, T/C",[3]; on day 81,0%
same,MTD,[4],"2,400 mg/m^2/week"
same,T/C,[5]; Day 14,52%
same,T/C,[5]; Day 42,22%
same,T/C,[5]; Day 73,46%
same,T/C,[5]; Day 76,49%
same,tumor growth after end of dosing,[5]; after day 11,significant tumor growth after completing the scheduled dosing
same,mice dead (died or tumor size >1000 cubic millimeters),[5]; by day 76,4 of 8
same,T/C,[6]; Day 12,54%
same,T/C,[6]; Day 37,60%
same,T/C,[6]; Day 58,93%
same,T/C,[6]; Day 76,96%
same,T/C,[6]; Day 90,82%
same,mean survival time (MST),[6],69 days
same,survival rate,"[6]; day 90, Kaplan-Maier",50%
same,maximum tumor growth inhibition value,[6]; on day 27,47%
